# Measured values taken from patent US5843916A, “Cyclic amp analogues, individually and in pairs, to inhibit neoplastic cell growth” (priority 1994, dated 1998).
# Like-named read-outs stand apart in the source and are kept apart here.
# What was measured:
# LoVo colon tumors = experiment: Subcutaneous infusion in tumor-bearing mice; format: in vivo, human xenograft in athymic NCR-NU mice; details: sc infusion approximately 42 mg/kg/day (1 mg/mouse), seven days
# LOVO Colon carcinoma = experiment: Growth of human colon tumor xenograft, ip infusion (Table 9); format: in vivo, human xenograft in athymic CD-1 mice; details: 7 days
# Description: (§1) Based on the findings with the […] leukemia model, the efficacy of the 8-Cl-cAMP-Na+infusions were evaluated in advanced-stage human tumor xenograft models. Tumor fragments of approximately 14 mg were implanted subcutaneously in athymic CD-1 female mice and seven day intraperitoneal infusions of the cyclic nucleotide were initiated three weeks later when mean tumor weights had reached 300-400 mg. Tumor measurements were recorded on the initial day of treatment (staging day) and one day after treatment was completed (staging day +7), and were used to calculate changes in tumor weights.
# (§2) *Mean tumor weight per group on staging day.
# (§3) $Mean tumor weight per group on staging day +7.
# (§4) **Change in test tumor wt (finalinitial)/initial test tumor treatment.
# (§5) Denoted by negative value.
# (§6) $$Change in test tumor wt/change in control tumor wt. Used where test
# (§7) tumor size increased during treatment. Denoted by positive value.
# LX-1-Lung carcinoma = experiment: Growth of human lung tumor xenograft, ip infusion (Table 9); format: in vivo, human xenograft in athymic CD-1 mice; details: 7 days
# Description: as §1, §2, §3, §4, §5, §6, §7
# BDF1 mice = experiment: Toxicity in non-tumor BDF1 mice (Table 6); format: in vivo, mouse; details: for Toxic deaths, No. killed/No. treated: qd, day 1
# Description: (§8) Influence of 8-Cl-cAMP-Na^+ on the life span of
# (§9) non-tumor BDF1 mice when delivered i.p. by bolus injection
# (§10) When delivered qd, day 1 to nontumor BDF1 mice, the 480 and 288 mg/k
# [1] = Toxicity in non-tumor BDF1 mice (Table 6); format: in vivo, mouse; details: mouse, in vivo; for mortality: qd, day 1, read-out: Toxic deaths, No. killed/No. treated
# Description: as §8, §9, §10
# [2] = system: two mammary, one lung, and one colon tumor; experiment: Advanced-stage human tumor xenografts, ip infusion; format: in vivo, human xenograft in athymic CD-1 mice; details: seven day ip infusion
# Description: as §1
# [3] = system: MDA-MB-231 mammary carcinoma; experiment: Growth of human mammary tumor xenograft, ip infusion (Table 8); format: in vivo, human xenograft in athymic CD-1 mice; details: 7 days; for % Δ T/T or % Δ T/ΔC: positive = ΔT/ΔC
# Description: as §1, §2, §3, §4, §5, §6, §7
# MX-1 mammary carcinoma = experiment: as above; format: in vivo, human xenograft in athymic CD-1 mice; details: 7 days; for % Δ T/T or % Δ T/ΔC: negative = ΔT/T
# Description: as §1, §2, §3, §4, §5, §6, §7
# L1210 leukemia = experiment: Life span of L1210-inoculated BDF1 mice (Table 7)
smiles,measurement,setting,value
Nc1ncnc2c1nc(Cl)n2[C@@H]1O[C@@H]2COP(=O)(O)O[C@H]2[C@H]1O [8-Cl-cAMP-Na^+],toxicity,LoVo colon tumors,appeared to be toxic
same,Final Mean Tumor Wt,"LOVO Colon carcinoma; 37 mg/kg/day, initial 288 mg",284 mg
same,% Δ T/T or % Δ T/ΔC,"LOVO Colon carcinoma; 37 mg/kg/day, negative = ΔT/T",-01%
same,Final Mean Tumor Wt,"LOVO Colon carcinoma; 62 mg/kg/day, initial 293 mg",290 mg
same,% Δ T/T or % Δ T/ΔC,"LOVO Colon carcinoma; 62 mg/kg/day, negative = ΔT/T",-01%
same,% Δ T/T or % Δ T/ΔC,LOVO Colon carcinoma; 104 mg/kg/day,-35%
same,Final Mean Tumor Wt,"LOVO Colon carcinoma; 104 mg/kg/day, initial 288 mg",317 mg
same,Final Mean Tumor Wt,"LX-1-Lung carcinoma; 37 mg/kg/day, initial 330 mg",341 mg
same,% Δ T/T or % Δ T/ΔC,"LX-1-Lung carcinoma; 37 mg/kg/day, positive = ΔT/ΔC",+06%
same,Final Mean Tumor Wt,"LX-1-Lung carcinoma; 62 mg/kg/day, initial 327 mg",277 mg
same,% Δ T/T or % Δ T/ΔC,"LX-1-Lung carcinoma; 62 mg/kg/day, negative = ΔT/T",-15%
same,Final Mean Tumor Wt,"LX-1-Lung carcinoma; 104 mg/kg/day, initial 324 mg",270 mg
same,% Δ T/T or % Δ T/ΔC,"LX-1-Lung carcinoma; 104 mg/kg/day, negative = ΔT/T",-17%
same,"Toxic deaths, No. killed/No. treated",BDF1 mice; 173 mg/kg ip bolus,2/5
same,"Toxic deaths, No. killed/No. treated","BDF1 mice; 173 mg/kg ip bolus, listed as 8Cl-cAMP-Na^+",killed 2 of 5 mice
same,"Toxic deaths, No. killed/No. treated",BDF1 mice; 288 mg/kg ip bolus,5/5
same,"Toxic deaths, No. killed/No. treated","BDF1 mice; 288 mg/kg ip bolus, listed as 8Cl-cAMP-Na^+",lethally toxic for all treated mice
same,"Toxic deaths, No. killed/No. treated",BDF1 mice; 480 mg/kg ip bolus,5/5
same,"Toxic deaths, No. killed/No. treated","BDF1 mice; 480 mg/kg ip bolus, listed as 8Cl-cAMP-Na^+",lethally toxic for all treated mice
same,LD10,BDF1 mice; Single ip dose,122 mg/kg
same,mortality,[1]; 22 mg/kg ip bolus,0%
same,mortality,[1]; 37 mg/kg ip bolus,0%
same,mortality,[1]; 62 mg/kg ip bolus,0%
same,mortality,[1]; 104 mg/kg ip bolus,0%
same,LD50,[1]; Single ip dose,195 mg/kg
same,tumor growth during treatment,[2],caused tumor stasis during treatment
same,Final Mean Tumor Wt,"[3]; 37 mg/kg/day, initial 367 mg",516 mg
same,% Δ T/T or % Δ T/ΔC,[3]; 37 mg/kg/day,+41%
same,Final Mean Tumor Wt,"[3]; 62 mg/kg/day, initial 375 mg",471 mg
same,% Δ T/T or % Δ T/ΔC,[3]; 62 mg/kg/day,+26%
same,Final Mean Tumor Wt,"[3]; 104 mg/kg/day, initial 367 mg",433 mg
same,% Δ T/T or % Δ T/ΔC,[3]; 104 mg/kg/day,+18%
same,Final Mean Tumor Wt,"MX-1 mammary carcinoma; 62 mg/kg/day, initial 337 mg",288 mg
same,% Δ T/T or % Δ T/ΔC,MX-1 mammary carcinoma; 62 mg/kg/day,-15%
same,Final Mean Tumor Wt,"MX-1 mammary carcinoma; 104 mg/kg/day, initial 346 mg",323 mg
same,% Δ T/T or % Δ T/ΔC,MX-1 mammary carcinoma; 104 mg/kg/day,-07%
same,Final Mean Tumor Wt,"MX-1 mammary carcinoma; 173 mg/kg/day, initial 375 mg",336 mg
same,% Δ T/T or % Δ T/ΔC,MX-1 mammary carcinoma; 173 mg/kg/day,-10%
same,Postinoculation lifespan (T/C),"L1210 leukemia; 0.6 mg/kg/day ip, 24-hr infusion, day 1-5",100
same,Postinoculation lifespan (T/C),"L1210 leukemia; 1.7 mg/kg/day ip, 24-hr infusion, day 1-5",100
same,Postinoculation lifespan (T/C),"L1210 leukemia; 4.8 mg/kg/day ip, 24-hr infusion, day 1-5",100
same,Postinoculation lifespan (T/C),"L1210 leukemia; 13 mg/kg/day ip, 24-hr infusion, day 1-5",113
same,Postinoculation lifespan (T/C),"L1210 leukemia; 22 mg/kg/day ip, 24-hr infusion, day 1-5",126
same,Postinoculation lifespan (T/C),"L1210 leukemia; 22 mg/kg/day ip, qd, day 1-7",103
same,Postinoculation lifespan (T/C),"L1210 leukemia; 37 mg/kg/day ip, 24-hr infusion, day 1-5",126
same,Postinoculation lifespan (T/C),"L1210 leukemia; 37 mg/kg/day ip, qd, day 1-7",93
same,Postinoculation lifespan (T/C),"L1210 leukemia; 62 mg/kg/day ip, 24-hr infusion, day 1-5",137
same,Postinoculation lifespan (T/C),"L1210 leukemia; 62 mg/kg/day ip, qd, day 1-7",103
same,Postinoculation lifespan (T/C),"L1210 leukemia; 104 mg/kg/day ip, 24-hr infusion, day 1-5",137
same,Postinoculation lifespan (T/C),"L1210 leukemia; 104 mg/kg/day ip, qd, day 1-7",98
same,Postinoculation lifespan (T/C),"L1210 leukemia; 173 mg/kg/day ip, 24-hr infusion, day 1-5",131
same,toxicity,L1210 leukemia; 288 mg/kg/day ip infusion,toxic
same,toxicity,"L1210 leukemia; 288 mg/kg/day ip infusion, listed as 8Cl-cAMP-Na^+",killed 2 to 5 mice
same,Postinoculation lifespan (T/C),"L1210 leukemia; 288 mg/kg/day ip, 24-hr infusion, day 1-5, toxic",128
same,toxicity,L1210 leukemia; 480 mg/kg/day ip infusion,toxic
same,toxicity,"L1210 leukemia; 480 mg/kg/day ip infusion, listed as 8Cl-cAMP-Na^+",lethally toxic for all treated mice
same,Postinoculation lifespan (T/C),"L1210 leukemia; 480 mg/kg/day ip, 24-hr infusion, day 1-5, toxic",93
same,toxicity,L1210 leukemia; 800 mg/kg/day ip infusion,toxic
same,toxicity,"L1210 leukemia; 800 mg/kg/day ip infusion, listed as 8Cl-cAMP-Na^+",lethally toxic for all treated mice
same,Postinoculation lifespan (T/C),"L1210 leukemia; 800 mg/kg/day ip, 24-hr infusion, day 1-5, toxic",62
